The record followed here is patent US20230276831A1, “Food/Beverage Article” (Kikkoman Corporation, priority 2020, published 2023).

Assay [1] deals with Lactobacillus rennini (DSM 20253). Briefly: Antimicrobial action of oxygen-containing heterocyclic compounds in soy sauce (Test Example 6). It is filed as cell-based. To be noted: Loigolactobacillus rennini, DSM20253, 168 h, salt 4% (w/v), alcohol 5% (v/v). How it is done: (§1) Commercially available whole soybean soy sauce (produced by Kikkoman Corporation) was electrodialyzed and then concentrated under reduced pressure to produce soy sauce at a salt concentration of 0% (w/v) and an alcohol concentration of 0% (v/v). Then, salt and/or alcohol was added to the above-mentioned obtained soy sauce, and the mixture was then heat-treated to produce soy sauce at a salt concentration of 4% (w/v) and an alcohol concentration of 5% (v/v).
The test substance described in Table 20 was added to the above-mentioned produced soy sauce to concentrations of 1 to 100 ppm. Lactic acid bacteria (Lactobacillus rennini (DSM 20253)) were then added to 10^6 to 10^7 cells/mL and cultured at 30° C. for 7 days. After the culture, the number of lactic acid bacteria was measured using the GAM agar medium “Nissui”. Soy sauce to which licoricidin was not added was used as a control group, and the antimicrobial activity was evaluated in comparison with the number of lactic acid bacteria in the control group. The evaluation was performed using the criterion shown below.
• A: The bacterial count decreases to less than 10% of the bacterial count of the control group. • B: The bacterial count decreases to 10% or more and less than 50% of the bacterial count of control group. • C: The bacterial count decreases to 50% or more and less than 100% of the bacterial count of the control group. • D: The bacterial count is the same as the bacterial count of the control group. • -: Not evaluated

For assay [2], the system named is Lactobacillus fructivores (NBRC 13954). Put plainly: Antimicrobial action of oxygen-containing heterocyclic compounds in soy sauce (Test Example 7). In kind it is cell-based. To be noted: NBRC13954, 168 h, salt 4% (w/v), alcohol 5% (v/v). As for the experimental part:
as §1
The test substance described in Table 21 was added to the soy sauce produced in Test Example 6 to concentrations of 0.1 ppm, 0.5 ppm, 1 ppm, 5 ppm, 25 ppm, and 50 ppm. Lactic acid bacteria (Lactobacillus fructivores (NBRC 13954)) were then added to 10^4 to 10^5 cells/mL and cultured at 30° C. for 7 days. After the culture, the number of lactic acid bacteria was measured using Difco Lactobacilli MRS Agar. Soy sauce to which the test substance was not added was used as a control group, and the antimicrobial activity was evaluated in comparison with the number of lactic acid bacteria in the control group. The evaluation was performed using the following criterion.
• A: The bacterial count decreases to less than 10% of the bacterial count of a control group. • B: The bacterial count decreases to 10% or more and less than 50% of the bacterial count of the control group. • C: The bacterial count decreases to 50% or more and less than 100% of the bacterial count of the control group. • D: The bacterial count is the same as the bacterial count of the control group.

As to `COc1c(CC=C(C)C)c(O)cc2c1C[C@H](c1ccc(O)c(CC=C(C)C)c1O)CO2` [Licoricidin, 4-[(R)-7-hydroxy-5-methoxy-6-(3-methyl-2-butenyl)chroman-3-yl]-2-(3-methyl-2-butenyl)-1,3-benzenediol], the activity at 5 ppm in assay [1] (test substance 5 ppm) was under 10%; in assay [2] (test substance 5 ppm) it was 10 to 50%. For the same compound, the activity at 10 ppm in assay [1] (test substance 10 ppm) was under 10%. Further, the activity at 25 ppm in assay [1] (test substance 25 ppm) and in assay [2] (test substance 25 ppm) was under 10% throughout. The activity at 50 ppm in assay [1] (test substance 50 ppm) and in assay [2] (test substance 50 ppm) was under 10% in each case. Further, the activity at 0.1 ppm in assay [2] (test substance 0.1 ppm) was in the range of 10 to 50%. Further, the activity at 0.5 ppm in assay [2] (test substance 0.5 ppm) lay in the range of 10 to 50%. Besides, the activity at 1 ppm in assay [2] (test substance 1 ppm) was 10 to 50%.
